One test has as its system KOPN-8. Briefly: Antiproliferative activity against human KOPN8 cells after 72 hrs by CelTiter-Glo assay. It counts as functional, cell-based. The following applies: KOPN-8, 72 h.
In another test the test system is SEM cells. The test is described as follows: Antiproliferative activity against human SEM cells after 72 hrs by CelTiter-Glo assay. In kind it is functional, cell-based.
In a further test the test system is SUP-B15. Briefly: Antiproliferative activity against human SUP-B15 cells after 72 hrs by CelTiter-Glo assay. In kind it is functional, cell-based. Particulars: SUP-B15, 72 h.
Another test deals with BJ. Briefly: Antiproliferative activity against human BJ cells after 72 hrs by CelTiter-Glo assay. It counts as cell-based.
The subject of another test is UoC-B1. The test is described as follows: Antiproliferative activity against human UOCB1 cells after 72 hrs by CelTiter-Glo assay. It counts as functional, cell-based. The following applies: UoC-B1, 72 h.
Another test concerns HepG2. Briefly: Antiproliferative activity against human HepG2 cells after 72 hrs by CelTiter-Glo assay. It counts as functional, cell-based. Particulars: HepG2, 72 h.

Structures are written as SMILES.

Broadly, the EC50 is the concentration that produces a half-maximal response. For `COC(=O)c1cc(=O)c2cc(NC(=O)Nc3ccc4c(c3)CCC4)ccc2[nH]1`, the EC50 in the test with KOPN-8, in the test with SEM cells, in the test on SUP-B15, in the test with BJ, with UoC-B1 and with HepG2 was greater than 24.1 µM in each case.
For the molecule `COc1ccc(-c2cc(=O)c3c(OC)cc(OC)cc3n2S(=O)(=O)c2ccc(OC)cc2)cc1`, the EC50 with KOPN-8, in the test with SUP-B15, with BJ and in the test with HepG2 was greater than 82.8 µM in each case.
For `COc1ccc(-c2cc(=O)c3c(OC)cc(OC)cc3n2S(=O)(=O)c2ccc(Cl)cc2)cc1`, the EC50 in the test on KOPN-8, with SUP-B15, in the test on BJ and with HepG2 was greater than 34.5 µM each time.
In the case of `COc1ccc(-c2cc(=O)c3c(OC)cc(OC)cc3n2S(=O)(=O)c2ccc(Br)s2)cc1`, the EC50 in the test on KOPN-8, in the test with SUP-B15, in the test on BJ and with HepG2 was greater than 48.3 µM in each case.
As to `COc1ccc(-c2cc(=O)c3c(OC)cc(OC)cc3n2S(=O)(=O)c2ccc(C)c([N+](=O)[O-])c2)cc1`, the EC50 in the test with KOPN-8, in the test on SUP-B15, with BJ and in the test with HepG2 was greater than 51.7 µM each time.
For the molecule `COc1cc(OC)c2c(=O)cc(C(=O)Nc3ccc4oc(-c5ccc(F)cc5)nc4c3)[nH]c2c1`, the EC50 in the test with KOPN-8, in the test on SEM cells, in the test on SUP-B15, with BJ, with UoC-B1 and in the test with HepG2 was greater than 36.8 µM each time.
Take `COc1ccc(-c2cc(=O)c3c(OC)cc(OC)cc3n2S(=O)(=O)c2c(C(C)C)cc(C(C)C)cc2C(C)C)cc1`: the EC50 is greater than 341 µM in the test with KOPN-8, 43.3 µM in the test on SUP-B15, greater than 341 µM with BJ and greater than 341 µM in the test on HepG2.
`COc1ccc(-c2cc(=O)c3c(OC)cc(OC)cc3n2S(=O)(=O)c2c(F)c(F)c(F)c(F)c2F)cc1`: the EC50 in the test with KOPN-8 is greater than 34.5 µM; in the test on SEM cells, 3.9 µM; in the test on SUP-B15, 4.1 µM; with BJ it was greater than 34.5 µM; with HepG2, greater than 34.5 µM.
Turning to `COc1ccc(-c2cc(=O)c3c(OC)cc(OC)cc3n2S(=O)(=O)c2cccc([N+](=O)[O-])c2)cc1`, the EC50 in the test with KOPN-8, in the test on SUP-B15, with BJ and with HepG2 was greater than 39.7 µM each time.
As for `COc1cc(OC)c2c(=O)cc(C(=O)Nc3ccc(S(=O)(=O)c4ccccc4)cc3)[nH]c2c1`, the EC50 in the test on KOPN-8, with SUP-B15, in the test with BJ and in the test with HepG2 was greater than 70.7 µM in each case.
Take `COc1cc(OC)c2c(=O)cc(C(=O)Nc3cc(C(F)(F)F)ccc3Oc3ccccc3OC)[nH]c2c1`: the EC50 was greater than 53.4 µM with KOPN-8; 10.8 µM in the test on SEM cells; greater than 53.4 µM with SUP-B15; greater than 53.4 µM with BJ; 10.7 µM with HepG2.
Regarding `COc1ccc(-c2cc(=O)c3c(OC)cc(OC)cc3n2S(=O)(=O)c2ccc(C#N)cc2)cc1`, the EC50 in the test on KOPN-8 was greater than 17.2 µM; in the test with SEM cells it was 1.3 µM; in the test with SUP-B15, 7.9 µM; in the test with BJ, greater than 17.2 µM; in the test on HepG2 it was greater than 17.2 µM.
As for `COc1ccc(-c2cc(=O)c3c(OC)cc(OC)cc3n2S(=O)(=O)c2cccc(Br)c2)cc1`, the EC50 in the test on KOPN-8, in the test on SUP-B15, with BJ and in the test on HepG2 was greater than 58.6 µM in each case.
As to `COc1ccc(-c2cc(=O)c3c(OC)cc(OC)cc3n2S(=O)(=O)c2ccc(C=O)cc2)cc1`, the EC50 in the test on KOPN-8, with SUP-B15, in the test on BJ and in the test on HepG2 was greater than 34.5 µM throughout.
For `COc1ccc(-c2cc(=O)c3c(OC)cc(OC)cc3n2S(=O)(=O)c2cc(Cl)cc(Cl)c2O)cc1`, the EC50 in the test on KOPN-8, in the test with SUP-B15, with BJ and in the test on HepG2 was greater than 37.9 µM in each case.
Regarding `COc1ccc(-c2cc(=O)c3c(OC)cc(OC)cc3n2S(=O)(=O)Cc2ccccc2)cc1`, the EC50 in the test on KOPN-8, in the test with SUP-B15, in the test on BJ and with HepG2 was greater than 34.5 µM throughout.
Consider `COc1cc(OC)c2c(=O)cc(C(=O)Nc3ccc(C4CCCCC4)cc3)[nH]c2c1`, for which the EC50 with KOPN-8 is 18.4 µM; in the test with SUP-B15, greater than 43.1 µM; in the test with BJ, 36.2 µM; with HepG2, greater than 43.1 µM.
For `COc1cc(OC)c2c(=O)cc(C(=O)Nc3ccccc3S(C)(=O)=O)[nH]c2c1`, the EC50 in the test with KOPN-8, with SUP-B15, in the test on BJ and in the test with HepG2 was greater than 39.7 µM throughout.
`COc1ccc(-c2cc(=O)c3c(OC)cc(OC)cc3n2S(=O)(=O)c2ccc(F)cc2)cc1`: the EC50 in the test on KOPN-8, in the test on SUP-B15, in the test with BJ and in the test on HepG2 was greater than 65.5 µM throughout.
Regarding `C=CCNC(=O)n1c(-c2ccc(OC)cc2)cc(=O)c2c(OC)cc(OC)cc21`, the EC50 was 12 µM in the test with KOPN-8; 12 µM with SEM cells; 16 µM in the test with SUP-B15; 74 µM with BJ; greater than 20 µM in the test with HepG2.
Turning to `COc1ccc(-c2cc(=O)c3c(OC)cc(OC)cc3n2S(=O)(=O)c2ccc([N+](=O)[O-])cc2)cc1`, the EC50 in the test with KOPN-8 was 17.3 µM; with SUP-B15 it was 17.1 µM; in the test on BJ it was greater than 29.3 µM; in the test with HepG2 it was greater than 29.3 µM.
With `COc1ccc(-c2cc(=O)c3c(OC)cc(OC)cc3n2S(=O)(=O)c2ccc(C)cc2)cc1`, the concentration for a half-maximal effect (EC50) in the test with KOPN-8, in the test with SUP-B15, in the test on BJ and with HepG2 was greater than 44.8 µM in each case.
As to `COc1ccc(-c2cc(=O)c3c(OC)cc(OC)cc3n2S(=O)(=O)c2cc(F)c(F)c(F)c2)cc1`, the EC50 with KOPN-8, in the test with SUP-B15, in the test with BJ and with HepG2 was greater than 65.5 µM throughout.
In the case of `COc1ccc(-c2cc(=O)c3c(OC)cc(OC)cc3n2S(=O)(=O)c2ccc(Br)cc2)cc1`, the EC50 in the test with KOPN-8 is greater than 86.2 µM; in the test with SUP-B15, 63.8 µM; in the test on BJ, greater than 86.2 µM; with HepG2 it was 16.3 µM.
`O=c1cc(-c2ccccc2)oc2cc(O)c(O)c(O)c12` [BAICALEIN]: the EC50 in the test on KOPN-8 is 16 µM; in the test on SUP-B15, 103 µM; in the test on BJ it was greater than 86.2 µM; in the test on HepG2, 60 µM.
`COc1ccc(-c2c(Cl)c(=O)c3c(OC)cc(OC)cc3n2S(=O)(=O)c2ccc(OC)cc2)cc1`: the EC50 in the test on KOPN-8 came to 19.1 µM; in the test with SUP-B15, 17.9 µM; in the test on BJ, 90 µM.
For the molecule `Nc1ccc2nc(C(=O)O)cc(O)c2c1`, the EC50 was 29 µM with SEM cells, 46 µM in the test with SUP-B15 and 371 µM with BJ.
As for `COc1ccc(-c2[nH]c3cc(OC)cc(OC)c3c(=O)c2I)cc1`, the EC50 in the test with KOPN-8 is 49.4 µM; with SUP-B15 it was greater than 86.2 µM; in the test with BJ, greater than 86.2 µM; with HepG2 it was greater than 86.2 µM.
As to `COc1ccc(-c2cc(=O)c3c(OC)cc(OC)cc3n2C)cc1`, the EC50 was 30 µM with KOPN-8, 26 µM in the test with SEM cells, 28 µM in the test with SUP-B15 and 68 µM in the test on BJ.
Consider `COc1cc(OC)c2c(=O)cc(C(=O)Nc3ccc(N4CCOCC4)cc3)[nH]c2c1`, for which the 50% effective concentration (EC50) in the test with KOPN-8, with SUP-B15, in the test on BJ and in the test with HepG2 was greater than 36.8 µM throughout.

The values are drawn from ChEMBL document CHEMBL4196009, “Novel vitexin-inspired scaffold against leukemia” (Eur J Med Chem, 2018).
